Our source for the Ki values is US7829589B2, “Sulfonamide compounds and uses thereof” (Elixir Pharmaceuticals, Inc., priority 2005, dated 2010).

Some results are limits rather than exact numbers.

As usually defined, the Ki is a measure of affinity in units of concentration, obtained from inhibition or displacement. Higher therefore signals weaker binding.

GHS-R, sequence (Q92847 whole entry, species assumed): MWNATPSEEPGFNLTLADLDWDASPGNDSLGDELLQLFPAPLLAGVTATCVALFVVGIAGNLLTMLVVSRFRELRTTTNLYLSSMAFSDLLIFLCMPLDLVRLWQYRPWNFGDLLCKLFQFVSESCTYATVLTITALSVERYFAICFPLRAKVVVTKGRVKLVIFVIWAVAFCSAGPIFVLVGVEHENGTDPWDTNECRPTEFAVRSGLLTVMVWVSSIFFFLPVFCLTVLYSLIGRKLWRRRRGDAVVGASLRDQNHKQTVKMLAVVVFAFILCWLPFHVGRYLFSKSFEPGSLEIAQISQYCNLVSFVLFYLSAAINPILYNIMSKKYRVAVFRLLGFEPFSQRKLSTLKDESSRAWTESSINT

The test deals with GHS-R (Homo sapiens, UniProt Q92847). Description: GHS-R antagonist activity (Ki) in a cell based assay. The procedure:
Cell-Based Activity Assays. For example, the ability of the compound to modulate accumulation of a second messenger signaling component downstream of GHS-R can be evaluated. For example, inositol phosphates (IP), as a result of Gq signaling in a mammalian cell, e.g., a Cos-7 cells. Other tissue culture cells, Xenopus oocytes, and primary cells can also be used.
Phosphatidylinositol turnover assay. One day after transfection COS-7 cells are incubated for 24 hours with 5 μCi of [^3H]-myo-inositol in 1 ml medium supplemented with 10% fetal calf serum, 2 mM glutamine and 0.01 mg/ml gentamicin per well. Cells are then washed twice in buffer, 20 mM HEPES, pH 7.4, supplemented with 140 mM NaCl, 5 mM KCl, 1 mM MgSO4, 1 mM CaCl2, 10 mM glucose, 0.05% (w/v) bovine serum; and incubated in 0.5 ml buffer supplemented with 10 mM LiCl at 37° C. for 30 min. For some assays, it is also useful to incubate the cells with adenosine deaminase ADA (200 U/mg, Boehringer Mannheim, Germany) for 30 min in a concentration of 1 U/ml.
After incubation with the compound of interest for 45 min at 37° C., cells are extracted with 10% ice-cold perchloric acid and placed on ice for 30 min. The resulting supernatants are neutralized with KOH in HEPES buffer, and [^3H]-inositol phosphate is purified on Bio-Rad AG 1-X8 anion exchange resin as described. Assays can be run in duplicate, triplicate, etc. […]
“3-Diethylamino-propane-1-sulfonic acid {(R)-1-[3-(5-bromo-pyridin-3-yl)-[1,2,4]oxadiazol-5-yl]-phenyl-propyl}-amide [Compound 103]” showed a Ki of 100 to 500 nM.
For `CCN(CC)CCCS(=O)(=O)N[C@H](COCc1ccccc1)c1nc(-c2ccccc2)no1` [Compound 1, 3-Diethylamino-propane-1-sulfonic acid [(R)-2-benzyloxy-1-(3-phenyl-[1,2,4]oxadiazol-5-yl)-ethyl]-amide] the value was 500 to 1000 nM.
`CCN(CC)CCCS(=O)(=O)N[C@H](COCc1ccccc1)c1nc(-c2c(Cl)cccc2Cl)no1` [Compound 2, 3-Diethylamino-propane-1-sulfonic acid {(R)-2-benzyloxy-1-[3-(2,6-dichloro-phenyl)-[1,2,4]oxadiazol-5-yl]-ethyl}-amide]: the Ki was < 100 nM.
As for `CCN(CC)CCCS(=O)(=O)N[C@H](CCc1ccccc1)c1nc(-c2cccc(Cl)c2Cl)n[nH]1` [Compound 3, 3-Diethylamino-propane-1-sulfonic acid {(R)-1-[5-(2,3-dichloro-phenyl)-2H-[1,2,4]triazol-3-yl]-3-phenyl-propyl}-amide], the Ki was < 100 nM.
For the molecule `CCN(CC)CCCS(=O)(=O)N[C@H](CCc1ccccc1)c1nc(-c2ccccc2C)no1` [Compound 4, 3-Diethylamino-propane-1-sulfonic acid [(R)-3-phenyl-1-(3-o-tolyl-[1,2,4]oxadiazol-5-yl)-propyl]-amide], the Ki was < 100 nM.
For the molecule `CCN(CC)CCCS(=O)(=O)N[C@H](CCc1ccccc1)c1nc(Cc2ccc(F)cc2)n[nH]1` [Compound 5, 3-Diethylamino-propane-1-sulfonic acid {(R)-1-[5-(4-fluoro-benzyl)-2H-[1,2,4]triazol-3-yl]-3-phenyl-propyl}-amide], the Ki is < 100 nM.
For `CCN(CC)CCCS(=O)(=O)N[C@H](CCc1ccccc1)c1nc(-c2ccccc2)no1` [Compound 6, 3-Diethylamino-propane-1-sulfonic acid [(R)-3-phenyl-1-(3-phenyl-[1,2,4]oxadiazol-5-yl)-propyl]-amide] the value was < 100 nM; for `CCN(CC)CCCS(=O)(=O)N[C@H](CCc1ccccc1)c1nc(-c2ccsc2)n[nH]1` [Compound 7, 3-Diethylamino-propane-1 sulfonic acid [(R)-3-phenyl-1-(5-thiophen-3-yl-2H-[1,2,4]triazol-3-yl)-propyl]-amide], < 100 nM; for `CCN(CC)CCCS(=O)(=O)N[C@H](CCc1ccccc1)c1nc(-c2c(F)cc(F)cc2F)n[nH]1` [Compound 8, 3-Diethylamino-propane-1-sulfonic acid {(R)-3-phenyl-1-[5-(2,4,6-trifluoro-phenyl)-2H-[1,2,4]triazol-3-yl]-propyl}-amide], < 100 nM.
For `CCN(CC)CCCS(=O)(=O)N[C@H](CCc1ccccc1)c1nc(-c2ncccc2C)no1` [Compound 9, 3-Diethylamino-propane-1-sulfonic acid {(R)-1-[3-(3-methyl-pyridin-2-yl)-[1,2,4]oxadiazol-5-yl]-3-phenyl-propyl}-amide] the value was 100 to 500 nM; for `CCN(CC)CCCS(=O)(=O)N[C@H](CCc1ccccc1)c1nc(-c2c(C)cccc2Cl)no1` [Compound 10, 3-Diethylamino-propane-1-sulfonic acid {(R)-1-[3-(2-chloro-6-methyl-phenyl)-[1,2,4]oxadiazol-5-yl]-3-phenyl-propyl}-amide], 100 to 500 nM.
For the molecule `CCN(CC)CCCS(=O)(=O)N[C@H](CCc1ccccc1)c1nc(-c2ccc3c(c2)OCO3)n[nH]1` [Compound 11, 3-Diethylamino-propane-1-sulfonic acid [(R)-1-(5-benzo[1,3]dioxol-5-yl-2H-[1,2,4]triazol-3-yl)-3-phenyl-propyl]-amide], the Ki is < 100 nM.
With `CCN(CC)CCCS(=O)(=O)N[C@H](CCc1ccccc1)c1nc(-c2c(Cl)cccc2Cl)no1` [Compound 12, 3-Diethylamino-propane-1-sulfonic acid {(R)-1-[3-(2,6-dichloro-phenyl)-[1,2,4]oxadiazol-5-yl]-3-phenyl-propyl}-amide], the Ki is < 100 nM.
With `CCN(CC)CCS(=O)(=O)N[C@H](CCc1ccccc1)c1nc(-c2ccccc2C)no1` [Compound 13, 2-Diethylamino-ethanesulfonic acid [(R)-3-phenyl-1-(3-o-tolyl-[1,2,4]oxadiazol-5-yl)-propyl]-amide] the figure was 500 to 1000 nM; with `CCN(CC)CCS(=O)(=O)N[C@H](CCc1ccccc1)c1nc(-c2ncccc2C)no1` [Compound 14, 2-Diethylamino-ethanesulfonic acid {(R)-1-[3-(3-methyl-pyridin-2-yl)-[1,2,4]oxadiazol-5-yl]-3-phenyl-propyl}-amide], 100 to 500 nM.
With `CCN(CC)CCCS(=O)(=O)N[C@H](CCc1ccccc1)c1nc(-c2cccc(F)c2)n[nH]1` [Compound 15, 3-Diethylamino-propane-1-sulfonic acid {(R)-1-[5-(3-fluoro-phenyl)-2H-[1,2,4]triazol-3-yl]-3-phenyl-propyl}-amide] the figure was < 100 nM; with `CCN(CC)CCCS(=O)(=O)N[C@H](CCc1ccccc1)c1nc(-c2ccccc2OC)no1` [Compound 16, 3-Diethylamino-propane-1-sulfonic acid {(R)-1-[3-(2-methoxy-phenyl)-[1,2,4]oxadiazol-5-yl]-3-phenyl-propyl}-amide], 500 to 1000 nM.
`CCN(CC)CCS(=O)(=O)N[C@H](CCc1ccccc1)c1nc(-c2ccccc2)no1` [Compound 17, 2-Diethylamino-ethanesulfonic acid [(R)-3-phenyl-1-(3-phenyl-[1,2,4]oxadiazol-5-yl)-propyl]-amide] displayed an inhibition constant Ki of 100 to 500 nM.
With `CCN(CC)CCS(=O)(=O)N[C@H](CCc1ccccc1)c1nc(-c2c(Cl)cccc2Cl)no1` [Compound 18, 2-Diethylamino-ethanesulfonic acid {(R)-1-[3-(2,6-dichloro-phenyl)-[1,2,4]oxadiazol-5-yl]-3-phenyl-propyl}-amide] the figure was 100 to 500 nM; with `CCN(CC)CCS(=O)(=O)N[C@H](CCc1ccccc1)c1nc(-c2ccccc2OC)no1` [Compound 19, 2-Diethylamino-ethanesulfonic acid {(R)-1-[3-(2-methoxy-phenyl)-[1,2,4]oxadiazol-5-yl]-3-phenyl-propyl}-amide], ≥ 1000 nM.
Turning to `CCN(CC)CCCS(=O)(=O)N[C@H](CCc1ccccc1)c1nc(-c2ccc3[nH]ccc3c2)n[nH]1` [Compound 20, 3-Diethylamino-propane-1-sulfonic acid {(R)-1-[5-(1H-indol-5-yl)-2H-{1,2,4]triazol-3-yl]-3-phenyl-propyl}-amide], the Ki is < 100 nM.
`CCN(CC)CCCS(=O)(=O)N[C@@H](CCc1ccccc1)c1nc(-c2ccccc2C)no1` [Compound 21, 3-Diethylamino-propane-1-sulfonic acid [(S)-3-phenyl-1-(3-o-tolyl-[1,2,4]oxadiazol-5-yl)-propyl]-amide] gave a Ki of 100 to 500 nM.
With `CCN(CC)CCCS(=O)(=O)N[C@H](CCc1ccccc1)c1nc(-c2ccc(Cl)cc2)n[nH]1` [Compound 22, 3-Diethylamino-propane-1-sulfonic acid {(R)-1-[5-(4-chloro-phenyl)-2H-[1,2,4]triazol-3-yl]-3-phenyl-propyl}-amide] the figure was < 100 nM; with `CCN(CC)CCCS(=O)(=O)N[C@H](CCc1ccccc1)c1nc(-c2ccccc2)n[nH]1` [Compound 23, 3-Diethylamino-propane-1-sulfonic acid [(R)-3-phenyl-1-(5-phenyl-2H-[1,2,4]triazol-3-yl)-propyl]-amide], < 100 nM.
For `CCN(CC)CCCS(=O)(=O)N[C@H](CCc1ccccc1)c1nc(Cc2ccc(Cl)cc2)n[nH]1` [Compound 24, 3-Diethylamino-propane-1-sulfonic acid {(R)-1-[5-(4-chloro-benzyl)-2H-[1,2,4]triazol-3-yl]-3-phenyl-propyl}-amide] the value was < 100 nM.
The molecule `CCN(CC)CCCS(=O)(=O)N[C@H](COCc1ccccc1)c1nc(-c2ccccc2)n[nH]1` [Compound 25, 3-Diethylamino-propane-1-sulfonic acid [(S)-2-benzyloxy-1-(5-phenyl-2H-[1,2,4]triazol-3-yl)-ethyl]-amide] displayed an inhibition constant Ki of 100 to 500 nM.
With `CCN(CC)CCS(=O)(=O)N[C@H](CCc1ccccc1)c1nc(-c2ccccn2)no1` [Compound 27, 2-Diethylamino-ethanesulfonic acid [(R)-3-phenyl-1-(3-pyridin-2-yl-[1,2,4]oxadiazol-5-yl)-propyl]-amide] the figure was 100 to 500 nM; with `CCN(CC)CCS(=O)(=O)N[C@H](CCc1ccccc1)c1nc(-c2ccccc2)n[nH]1` [Compound 28, 2-Diethylamino-ethanesulfonic acid [(R)-3-phenyl-1-(5-phenyl-2H-[1,2,4]triazol-3-yl)-propyl]-amide], < 100 nM.
With `CCN(CC)CCCS(=O)(=O)N[C@H](CCc1ccccc1)c1nc(-c2ccccc2F)n[nH]1` [Compound 29, 3-Diethylamino-propane-1-sulfonic acid {(R)-1-[5-(2-fluoro-phenyl)-2H-[1,2,4]triazol-3-yl]-3-phenyl-propyl}-amide] the figure was < 100 nM.
